Read-outs that look alike come from different tables or passages of the source.
What was measured:
Design in all cases: species or system AML cell lines (8); Primary HTS, single concentration about 10 uM, Cell Titer Glo viability; log10 luminescence, per cent inhibition relative to cycloheximide control
Settings in all cases: 72 h, inhibitor
U937 = system: U937
MV4-11 = system: MV4-11
CMS = system: CMS
CHRF288-11 = system: CHRF288-11
M07e = system: M07e
CMK = system: CMK
ML-2 = system: ML-2
MOLM-13 = system: MOLM-13
[1] = relative to cycloheximide control, log10 luminescence

Structure (SMILES)	U937 %inh (U937; [1])	MV4-11 %inh (MV4-11; [1])	CMS %inh (CMS; [1])	CHRF288-11 %inh (CHRF288-11; [1])	M07e %inh (M07e; [1])	CMK %inh (CMK; [1])	ML-2 %inh (ML-2; [1])	MOLM-13 %inh (MOLM-13; [1])	U937 %inh (U937; 10 µM)	MV4-11 %inh (MV4-11; 10 µM)	CMS %inh (CMS; 10 µM)	CHRF288-11 %inh (CHRF288-11; 10 µM)	M07e %inh (M07e; 10 µM)	CMK %inh (CMK; 10 µM)	ML-2 %inh (ML-2; 10 µM)	MOLM-13 %inh (MOLM-13; 10 µM)
CC1=C(C(=O)Nc2ccc3[nH]ncc3c2)C(c2ccc(Cl)c(Cl)c2)CC(=O)N1 (stereo not shown) [SJ000573256-1, SD205340-087A3]	2.616%	13.75%	3.826%	13.93%	6.129%	25.41%	6.91%	0.01758%								
C[C@@H](Oc1cc(-n2cnc3ccc(OCC4CCN(C)CC4)cc32)sc1C(N)=O)c1ccccc1C(F)(F)F [SJ000573257-1, U20395/196/2]	73.66%	86.97%	75.53%	130.5%	98.02%	97.6%	59.84%	108.4%								
CNC(=O)c1cncc(/C=C/c2c(Cl)cccc2Cl)c1 [SJ000573258-1, U12068/57/2]	3.831%	3.453%	3.911%	-0.5271%	7.169%	4.903%	-0.3801%	2.751%								
COc1ccc(Nc2ncc(-c3ccccc3)o2)cc1OC [SJ000573259-1, U14961/58/1]	-1.171%	88.15%	0.9883%	-4.817%	6.596%	5.775%	4.567%	83.48%								
Fc1ccc(-c2nn3ccccc3c2-c2ccncc2)cc1 [SJ000573260-1, U11781/145/5]	4.651%	4.558%	-2.539%	-2.859%	0.2861%	8.765%	-1.762%	0.1728%								
CCn1c(-c2nonc2N)nc2c(N3CCCC3)nccc21 [SJ000573261-1, DW100508-128A1]	-1.967%	6.029%	5.321%	2.981%	5.656%	3.861%	3.187%	1.048%								
Fc1cccc(COc2ccc(Nc3ncncc3C#Cc3ccccc3)cc2Cl)c1 [SJ000573262-1, U15872/50/1]	1.725%	1.812%	-2.059%	-1.921%	-0.005299%	-0.522%	1.8%	-0.1156%								
COc1cc(/C=N/Nc2ncnc3[nH]ncc23)ccc1O [SJ000573263-1, U15117/8/1]	2.504%	32.98%	3.056%	2.923%	4.954%	1.246%	0.3724%	34.62%								
CCN1CCC(CC(=O)Nc2n[nH]c3nc(-c4cccs4)c(Br)cc23)CC1 [SJ000573264-1, AG201339-025C2]	1.142%	29.41%	7.013%	10.8%	7.209%	18.01%	-1.837%	8.584%								
CCOc1ccc2c(-c3ccnc(Nc4cccc(C(F)(F)F)c4)n3)cnn2n1 [SJ000573265-1, U17838/110/3]	-3.226%	2.829%	0.8077%	2.566%	6.84%	-2.107%	2.429%	1.961%								
COC(=O)Nc1nc2cc(Oc3ccc(NC(=O)Nc4cccc(Br)c4)cc3)ccc2[nH]1 [SJ000573266-1, T261/62/3]	79.03%	65.99%	26.73%	12.69%	12.78%	40.21%	3.598%	76.65%								
COc1cc(/C=N/Nc2ncnc3c2cnn3C(C)C)ccc1O [SJ000573267-1, T237/25/6]									8.888%	40.62%	9.426%	29.61%	6.424%	41.95%	8.895%	52.9%
O=C1NC(=O)C(N2CCc3ccccc32)=C1c1ccc(Cl)cc1 [SJ000573268-1, DH97836-102A1]	0.6171%	95.01%	-3.009%	52.52%	-0.7324%	4.78%	-0.2823%	0.0382%								
Cc1ccc(O)cc1Nc1ccnc2cc(-c3ccccn3)ccc12 [SJ000573269-1, R1902/28/3 | HC 206053 | GW440139B | | RTP SMTECH | SID124349934 | TCMDC-138201 | GW440139B |]	14.95%	3.761%	4.641%	60.6%	10.95%	50.01%	1.439%	20.29%								
CCOc1nccc2c1nc(-c1nonc1N)n2CC [SJ000573270-1, DW100508-082A1]	-1.837%	-0.5042%	-3.21%	53.12%	-0.5841%	45.39%	28.26%	-1.635%								
O=C(Nc1n[nH]c2nc(-c3ccco3)ccc12)C1CC1 [SJ000573271-1, VB100064-193A1]	-4.198%	-0.2919%	0.8699%	7.062%	-1.707%	-3.194%	-0.1888%	1.202%								
Cc1ccc(C(=O)NC2CC2)cc1-c1ccc2[nH]ncc2c1 [SJ000573272-1, R8615/48/1]	1.222%	1.257%	0.2308%	1.821%	0.6909%	0.7696%	0.7274%	-2.369%								
CCCN1CCC=C(c2ccc(Nc3nc(Nc4ccccc4C(N)=O)c4cc[nH]c4n3)c(C)c2)C1 [SJ000573273-1, U22972/6/1]	14.36%	28.66%	2.734%	54.2%	19.9%	24.28%	20.08%	49.41%								
COc1cc(Nc2nccc(-c3cnn4ncccc34)n2)cc(OC)c1 [SJ000573274-1, U16419/146/1]	80.29%	76.66%	100.2%	52.5%	113.9%	84.54%	59.09%	76.09%								
CC(C)c1ccc(-c2cc(-c3c[nH]nc3-c3ccccn3)ccn2)cc1 [SJ000573275-1, FVLN/241/7/1]	0.007743%	4.536%	-0.3112%	9.433%	2.317%	0.9087%	1.414%	2.021%								
Fc1ccc(-c2cc(-c3c[nH]nc3-c3ccccn3)ccn2)cc1 [SJ000573276-1, FCJB/213/107/1]	16.91%	1.718%	-1.917%	-1.896%	-1.13%	15.4%	4.336%	10.74%								
COc1ccc(-c2cc(-c3c[nH]nc3-c3ccccn3)ccn2)cc1 [SJ000573277-1, FFJG/208/167/1]	7.208%	4.2%	0.9761%	12.63%	1.202%	4.937%	-0.1507%	2.31%								
Nc1nc(-c2ccccn2)c(-c2ccc3ncccc3n2)s1 [SJ000573278-1, FAMP/256/57/4]	-0.9094%	-2.996%	0.3275%	2.264%	0.9531%	2.499%	2.846%	2.605%								

Reference: article PMC6522510 (Nature Communications, 2019)
